Test results reported in PubChem BioAssay (NCI).
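Dose response: 5 concentrations. Exposure: 48 h. Format: 96-well plates. Endpoint: linear interpolation; highest concentration if not reached. GI50 is the concentration that inhibits growth by half. The concentration for full growth arrest is given as TGI.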

Key:
Test in all cases: DTP human tumour cell line panel, 48 h
IGROV1 ovarian = tested on: IGROV1 ovarian
UACC-257 melanoma = tested on: UACC-257 melanoma
SNB-75 CNS = tested on: SNB-75 CNS
ACHN renal = tested on: ACHN renal
K-562 leukemia = tested on: K-562 leukemia
MDA-MB-231 breast = tested on: MDA-MB-231 breast
LOX IMVI melanoma = tested on: LOX IMVI melanoma
SN12C renal = tested on: SN12C renal
786-0 renal = tested on: 786-0 renal
DU-145 prostate = tested on: DU-145 prostate
NCI/ADR-RES ovarian = tested on: NCI/ADR-RES ovarian
EKVX NSCLC = tested on: EKVX NSCLC
HOP-92 NSCLC = tested on: HOP-92 NSCLC
SK-MEL-2 melanoma = tested on: SK-MEL-2 melanoma
PC-3 prostate = tested on: PC-3 prostate
MOLT-4 leukemia = tested on: MOLT-4 leukemia
BT-549 breast = tested on: BT-549 breast
U251 CNS = tested on: U251 CNS
SW-620 colon = tested on: SW-620 colon
MDA-MB-435 = tested on: MDA-MB-435
NCI-H522 lung = tested on: NCI-H522 lung
CAKI-1 renal = tested on: CAKI-1 renal
SNB-19 CNS = tested on: SNB-19 CNS
SK-OV-3 ovarian = tested on: SK-OV-3 ovarian
OVCAR-8 ovarian = tested on: OVCAR-8 ovarian
UO-31 renal = tested on: UO-31 renal
UACC-62 melanoma = tested on: UACC-62 melanoma
SF-295 CNS = tested on: SF-295 CNS
TK-10 renal = tested on: TK-10 renal
SK-MEL-5 melanoma = tested on: SK-MEL-5 melanoma
HCT-15 colon = tested on: HCT-15 colon
COLO 205 colon = tested on: COLO 205 colon
HOP-62 NSCLC = tested on: HOP-62 NSCLC
SF-539 CNS = tested on: SF-539 CNS
NCI-H226 lung = tested on: NCI-H226 lung
SR leukemia = tested on: SR leukemia
OVCAR-4 ovarian = tested on: OVCAR-4 ovarian
A498 renal = tested on: A498 renal
NCI-H460 lung = tested on: NCI-H460 lung
MALME-3M melanoma = tested on: MALME-3M melanoma
SF-268 CNS = tested on: SF-268 CNS
M14 melanoma = tested on: M14 melanoma
T-47D breast = tested on: T-47D breast
HS 578T breast = tested on: HS 578T breast
HCC-2998 colon = tested on: HCC-2998 colon
MCF7 breast = tested on: MCF7 breast
A549 NSCLC = tested on: A549 NSCLC
HL-60(TB) leukemia = tested on: HL-60(TB) leukemia
OVCAR-5 ovarian = tested on: OVCAR-5 ovarian
HCT-116 colon = tested on: HCT-116 colon
CCRF-CEM leukemia = tested on: CCRF-CEM leukemia
NCI-H23 lung = tested on: NCI-H23 lung
SK-MEL-28 melanoma = tested on: SK-MEL-28 melanoma
RXF 393 renal = tested on: RXF 393 renal
HT29 colon = tested on: HT29 colon
KM12 colon = tested on: KM12 colon
RPMI-8226 leukemia = tested on: RPMI-8226 leukemia
OVCAR-3 ovarian = tested on: OVCAR-3 ovarian

O=C(/C=C/c1ccc(Cl)cc1)c1ccc(Nc2nc(Nc3ccc(F)cc3)nc(Nc3ccc(F)cc3)n2)cc1
GI50 (IGROV1 ovarian): 13.7 µM
TGI (IGROV1 ovarian): 30.9 µM
GI50 (UACC-257 melanoma): > 100 µM
TGI (UACC-257 melanoma): > 100 µM
GI50 (SNB-75 CNS): 67.8 µM
TGI (SNB-75 CNS): > 100 µM
GI50 (ACHN renal): 72 µM
TGI (ACHN renal): > 100 µM
GI50 (K-562 leukemia): 53.1 µM
TGI (K-562 leukemia): > 100 µM
GI50 (MDA-MB-231 breast): > 100 µM
TGI (MDA-MB-231 breast): > 100 µM
GI50 (LOX IMVI melanoma): 27.4 µM
TGI (LOX IMVI melanoma): 70.2 µM
GI50 (SN12C renal): > 100 µM
TGI (SN12C renal): > 100 µM
GI50 (786-0 renal): 23.1 µM
TGI (786-0 renal): 56.3 µM
GI50 (DU-145 prostate): > 100 µM
TGI (DU-145 prostate): > 100 µM
GI50 (NCI/ADR-RES ovarian): 43.9 µM
TGI (NCI/ADR-RES ovarian): > 100 µM
GI50 (EKVX NSCLC): 95.7 µM
TGI (EKVX NSCLC): > 100 µM
GI50 (HOP-92 NSCLC): 26.6 µM
TGI (HOP-92 NSCLC): > 100 µM
GI50 (SK-MEL-2 melanoma): 40.8 µM
TGI (SK-MEL-2 melanoma): > 100 µM
GI50 (PC-3 prostate): 41.1 µM
TGI (PC-3 prostate): > 100 µM
GI50 (MOLT-4 leukemia): 24.5 µM
TGI (MOLT-4 leukemia): 98.7 µM
GI50 (BT-549 breast): 19 µM
TGI (BT-549 breast): 36.9 µM
GI50 (U251 CNS): 19.8 µM
TGI (U251 CNS): 41.6 µM
GI50 (SW-620 colon): 29.2 µM
TGI (SW-620 colon): 76.5 µM
GI50 (MDA-MB-435): 23 µM
TGI (MDA-MB-435): 50 µM
GI50 (NCI-H522 lung): 35.6 µM
TGI (NCI-H522 lung): > 100 µM
GI50 (CAKI-1 renal): 80.4 µM
TGI (CAKI-1 renal): > 100 µM
GI50 (SNB-19 CNS): 94.1 µM
TGI (SNB-19 CNS): > 100 µM
GI50 (SK-OV-3 ovarian): 43.7 µM
TGI (SK-OV-3 ovarian): > 100 µM
GI50 (OVCAR-8 ovarian): 74.4 µM
TGI (OVCAR-8 ovarian): > 100 µM
GI50 (UO-31 renal): 19.4 µM
TGI (UO-31 renal): > 100 µM
GI50 (UACC-62 melanoma): > 100 µM
TGI (UACC-62 melanoma): > 100 µM
GI50 (SF-295 CNS): 22.6 µM
TGI (SF-295 CNS): 58.5 µM
GI50 (TK-10 renal): > 100 µM
TGI (TK-10 renal): > 100 µM
GI50 (SK-MEL-5 melanoma): 46.9 µM
TGI (SK-MEL-5 melanoma): > 100 µM
GI50 (HCT-15 colon): 53.7 µM
TGI (HCT-15 colon): > 100 µM
GI50 (COLO 205 colon): 16.7 µM
TGI (COLO 205 colon): 45.4 µM
GI50 (HOP-62 NSCLC): > 100 µM
TGI (HOP-62 NSCLC): > 100 µM
GI50 (SF-539 CNS): 24 µM
TGI (SF-539 CNS): 51.9 µM
GI50 (NCI-H226 lung): 24.5 µM
TGI (NCI-H226 lung): 53.8 µM
GI50 (SR leukemia): 22.3 µM
TGI (SR leukemia): 74.3 µM
GI50 (OVCAR-4 ovarian): 65.7 µM
TGI (OVCAR-4 ovarian): > 100 µM
GI50 (A498 renal): 34.6 µM
TGI (A498 renal): 98.5 µM
GI50 (NCI-H460 lung): 38.9 µM
TGI (NCI-H460 lung): > 100 µM
GI50 (MALME-3M melanoma): > 100 µM
TGI (MALME-3M melanoma): > 100 µM
GI50 (SF-268 CNS): 56.1 µM
TGI (SF-268 CNS): > 100 µM
GI50 (M14 melanoma): 20.7 µM
TGI (M14 melanoma): 42 µM
GI50 (T-47D breast): 19.2 µM
TGI (T-47D breast): > 100 µM
GI50 (HS 578T breast): 52.3 µM
TGI (HS 578T breast): > 100 µM
GI50 (HCC-2998 colon): 17.7 µM
TGI (HCC-2998 colon): 41.2 µM
GI50 (MCF7 breast): 9.45 µM
TGI (MCF7 breast): > 100 µM
GI50 (A549 NSCLC): 49.9 µM
TGI (A549 NSCLC): > 100 µM
GI50 (HL-60(TB) leukemia): 39 µM
TGI (HL-60(TB) leukemia): > 100 µM
GI50 (OVCAR-5 ovarian): > 100 µM
TGI (OVCAR-5 ovarian): > 100 µM
GI50 (HCT-116 colon): 12.2 µM
TGI (HCT-116 colon): 25.5 µM
GI50 (CCRF-CEM leukemia): 31.9 µM
TGI (CCRF-CEM leukemia): > 100 µM
GI50 (NCI-H23 lung): 41 µM
TGI (NCI-H23 lung): > 100 µM
GI50 (SK-MEL-28 melanoma): 24.6 µM
TGI (SK-MEL-28 melanoma): 61.7 µM
GI50 (RXF 393 renal): 21.2 µM
TGI (RXF 393 renal): 46.1 µM
GI50 (HT29 colon): 35.1 µM
TGI (HT29 colon): > 100 µM
GI50 (KM12 colon): 25.7 µM
TGI (KM12 colon): > 100 µM
GI50 (RPMI-8226 leukemia): 4.99 µM
TGI (RPMI-8226 leukemia): 26.3 µM
GI50 (OVCAR-3 ovarian): 32.2 µM
TGI (OVCAR-3 ovarian): 89.8 µM
